Literature values in US20070066591A1, “Compounds, compositions, and methods” (priority 2003, published 2007).

System: A549 cells
Settings: data provided by National Cancer Institute, Developmental Therapeutic Program

Going from `O=c1[nH]cc(F)c(=O)[nH]1` [5-fluorouracil] to `COc1cccc2c1C(=O)c1c(O)c3c(c(O)c1C2=O)C[C@@](O)(C(=O)CO)C[C@@H]3O[C@H]1C[C@H](N)[C@H](O)[C@H](C)O1` [doxorubicin], the GI50 falls from 1000 nM to 63 nM (16-fold).

Compared with `NC(=O)NO` [hydroxyurea], `CC(=O)O[C@H]1C(=O)[C@@]2(C)[C@H]([C@H](OC(=O)c3ccccc3)[C@]3(O)C[C@H](OC(=O)[C@H](O)[C@@H](NC(=O)c4ccccc4)c4ccccc4)C(C)=C1C3(C)C)[C@]1(OC(C)=O)CO[C@@H]1C[C@@H]2O` [paclitaxel] is far lower in GI50: 500000 nM for the first, 4 nM for the second.
